# Test results reported in PMC8413904 (Pharmacology Research & Perspectives, 2021).
# Assays:
# [1] = system: cultured rat brain cortical neurons; assay: Na^+ assay (CoroNa green‐AM); format: cell-based
# Experimental: (§1) All animal experimental procedures and housing have been approved by the Institutional Animal Care and Use Committee (IACUC) protocol #18‐015 of Virginia Tech. Embryonic day 18 (E18) rat brain tissue samples were obtained from adult pregnant SD rats. Rat brain primary cortical, striatal, and cerebellar neurons were cultured on poly‐d‐lysine coated 96‐well plates for 14 days in vitro (DIV14) before using for the experiments. Primary rat neuron culture was performed as previously published.[44] Briefly, each well of a 96 well plate was loaded with 50 000 cells and grown in 200 µl neurobasal media supplemented with B27, glutamax, penicillin, streptomycin. One hundred microliters of media was replaced with fresh media once in 4 days. Eight to thirteen fetus were obtained from each pregnant rat. Brain tissue from these fetus were pooled to obtain the neurons. Cortical, striatal, and cerebellar neuron assays were carried out at different time points.
# For Na^+ assay, DIV14 neurons were washed with HBSS and treated with freshly prepared CoroNa green‐AM dye (ThermoFisher, cat # C36676) and incubated for 45 min in 37°C. […] RFU values of background control and treatments were plotted to identify the effect of CNS4 on NMDA‐induced Na^+ flux in the neurons.
# [2] = system: cultured rat brain cerebellar neurons; assay: Na^+ assay (CoroNa green‐AM); format: cell-based
# Experimental: as §1
# (§2) For Na^+ assay, DIV14 neurons were washed with HBSS and treated with freshly prepared CoroNa green‐AM dye (ThermoFisher, cat # C36676) and incubated for 45 min in 37°C. Plates were washed twice with HBSS before adding drug solutions dissolved in HBSS, and read at 492/516 nm (ex/em) using a plate reader. RFU values of background control and treatments were plotted to identify the effect of CNS4 on NMDA‐induced Na^+ flux in the neurons.
# [3] = system: cultured rat brain striatal neurons; assay: Na^+ assay (CoroNa green‐AM); format: cell-based; conditions: 0.3 µM NMDA plus 100 µM CNS4; highest level
# Experimental: as §1, §2
# [4] = system: cultured rat brain cerebellar neurons; assay: Dynamic calcium assay (Fluo‐8); format: cell-based; conditions: 100 µM CNS4 plus 300 µM NMDA; p < .01 vs 300 µM NMDA (12810)
# Experimental: as §1
# (§3) Dynamic calcium assay was carried out, using Fluo‐8 no‐wash kit (abcam, ab112129), as per the manufacturer's instructions with minor modifications to fit with experimental necessities. On DIV14, all 200 μl of media was removed and replaced it with 100 μl of HBSS and 100 μl of Fluo‐8 dye loading solution. The plates were incubated at 37°C for 30 min and at room temperature for 30 min. A volume of 100 µL of test chemicals (3× of desired final concentration) was added to the plates immediately before running the calcium flux assay and read the fluorescence intensity at 490/525 nm (ex/em) using Synergy microplate reader, BioTek, VT. Costar 96‐well clear bottom black side plates were read from the bottom, nine times, with 60 s intervals between each read. Temperature was set at 37°C and reading speed was 100 ms.
# [5] = system: cultured rat brain striatal neurons; assay: Dynamic calcium assay (Fluo‐8); format: cell-based
# Experimental: as §1, §3
# GluN1/2D [6] = target: T1, GluN1/2D (UniProt O15399+P35439); assay: TEVC electrophysiology dose–response in xenopus oocytes; format: cell-based; parameters: host or cells: Xenopus oocytes (cRNA injection)
# T1 sequence (O15399 28-1336, other chains not shown): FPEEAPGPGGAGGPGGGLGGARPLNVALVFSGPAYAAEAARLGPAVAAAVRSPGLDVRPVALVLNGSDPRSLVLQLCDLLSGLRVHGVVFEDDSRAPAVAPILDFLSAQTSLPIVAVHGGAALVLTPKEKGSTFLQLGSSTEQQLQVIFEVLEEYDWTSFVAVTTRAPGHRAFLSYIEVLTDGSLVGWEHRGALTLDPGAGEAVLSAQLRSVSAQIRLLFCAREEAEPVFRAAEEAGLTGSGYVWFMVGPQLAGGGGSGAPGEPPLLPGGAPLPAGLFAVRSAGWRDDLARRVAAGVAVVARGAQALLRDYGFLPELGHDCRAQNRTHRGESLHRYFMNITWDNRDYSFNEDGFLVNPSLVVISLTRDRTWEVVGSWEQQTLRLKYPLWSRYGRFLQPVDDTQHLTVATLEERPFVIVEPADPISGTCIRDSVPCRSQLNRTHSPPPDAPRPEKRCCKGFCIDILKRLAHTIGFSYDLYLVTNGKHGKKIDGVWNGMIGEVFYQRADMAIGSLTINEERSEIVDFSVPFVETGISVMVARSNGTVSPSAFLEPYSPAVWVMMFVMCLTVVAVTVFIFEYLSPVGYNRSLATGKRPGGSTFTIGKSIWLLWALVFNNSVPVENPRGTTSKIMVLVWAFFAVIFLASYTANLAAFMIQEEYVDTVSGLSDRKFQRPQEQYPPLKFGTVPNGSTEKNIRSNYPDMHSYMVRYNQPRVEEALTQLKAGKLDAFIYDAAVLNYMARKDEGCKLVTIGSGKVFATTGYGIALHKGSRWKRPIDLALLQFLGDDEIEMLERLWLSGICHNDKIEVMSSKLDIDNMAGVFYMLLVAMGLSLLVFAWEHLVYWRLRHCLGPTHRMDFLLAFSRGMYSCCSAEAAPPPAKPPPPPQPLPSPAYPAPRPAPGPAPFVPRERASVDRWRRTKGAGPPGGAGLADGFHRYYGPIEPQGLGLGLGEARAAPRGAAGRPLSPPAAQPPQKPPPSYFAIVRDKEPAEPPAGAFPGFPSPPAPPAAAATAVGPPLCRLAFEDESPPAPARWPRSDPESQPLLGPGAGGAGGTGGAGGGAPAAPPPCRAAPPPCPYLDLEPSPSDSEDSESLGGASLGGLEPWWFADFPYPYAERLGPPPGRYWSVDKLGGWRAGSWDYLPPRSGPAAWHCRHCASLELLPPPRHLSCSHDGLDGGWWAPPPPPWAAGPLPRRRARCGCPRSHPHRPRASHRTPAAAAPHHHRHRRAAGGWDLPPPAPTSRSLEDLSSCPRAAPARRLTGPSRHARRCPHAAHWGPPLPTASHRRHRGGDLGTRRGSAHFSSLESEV
# Excerpt: NMDAR constructs: cDNA encoding the NMDAR1a subunit (GluN1a) was obtained from Dr. Nakanishi. cDNA encoding the GluN2B (pci_sepGluN2B) was developed initially in the Malinow lab[36] and purchased from Addgene (cat# 23998). cDNA encoding the GluN2C and GluN2D were purchased from GenScript. Mutated GluN1, 2A and 2B cDNA constructs capable of assembling as GluN1/2A/2B triheteromeric (1/2AB) receptors[37] were obtained from Dr. Paoletti (Laboratoire de Neurobiologie, CNRS). […] Plasmids were linearized with NotI (GluN1a) or Avrll (GluN2B), or BstB1 (GluN2C and GluN2D) and transcribed in vitro with T7 (GluN1a, GluN1/2A, GluN2B, GluN2C, & GluN2D) RNA polymerase using the mMessage mMachine transcription kits (Invitrogen by Thermo Fisher Scientific).
# Stage IV frog oocytes were obtained from Xenopus‐I. NMDAR subunit cRNAs were suspended in nuclease‐free sterile water. GluN1A, GluN2B, GluN2C, GluN2D, and GluN1/2A/2B cRNAs were mixed in a ratio of 1:1–3. 50 nl of the final cRNA mixture was microinjected (40–70 ng total) into the oocyte cytoplasm. Oocytes were incubated in ND‐96 solution at 18^◦C prior to electrophysiological recordings (1–3 days).
# Electrophysiological responses were measured using a standard two‐microelectrode voltage‐clamp workstation [Warner Instruments (Hamden, Connecticut) model OC‐725C] designed to provide a fast clamp of large cells. The recording buffer contained 116 mM NaCl, 2 mM KCl, 0.3 mM BaCl2, and 5 mM HEPES, pH 7.4. Response magnitude was determined in xenopus oocytes expressing different NMDAR subunits (GluN1/2A, 1/2B, 1/2C, 1/2D, and 1/2A/2B) by the steady plateau response elicited by bath application of different agonist concentrations. […] Response amplitudes for functional NMDARs were generally between 0.1 and 2 μA. […] Dose–response relationships were fit to an appropriate curve‐fitting equation using GraphPad Prism‐7. Nonlinear regression was used to calculate EC50 and/or percentage maximal response. […] Statistical significance was determined at the overall alpha level .05, using appropriate statistical methods as described in each figure captions.
# GluN1/2C = GluN1/2C (UniProt P35439+Q14957); assay: as above; format: cell-based; parameters: host or cells: Xenopus oocytes (cRNA injection)
# Sequence of GluN1/2C (Q14957 20-1233, other chains not shown): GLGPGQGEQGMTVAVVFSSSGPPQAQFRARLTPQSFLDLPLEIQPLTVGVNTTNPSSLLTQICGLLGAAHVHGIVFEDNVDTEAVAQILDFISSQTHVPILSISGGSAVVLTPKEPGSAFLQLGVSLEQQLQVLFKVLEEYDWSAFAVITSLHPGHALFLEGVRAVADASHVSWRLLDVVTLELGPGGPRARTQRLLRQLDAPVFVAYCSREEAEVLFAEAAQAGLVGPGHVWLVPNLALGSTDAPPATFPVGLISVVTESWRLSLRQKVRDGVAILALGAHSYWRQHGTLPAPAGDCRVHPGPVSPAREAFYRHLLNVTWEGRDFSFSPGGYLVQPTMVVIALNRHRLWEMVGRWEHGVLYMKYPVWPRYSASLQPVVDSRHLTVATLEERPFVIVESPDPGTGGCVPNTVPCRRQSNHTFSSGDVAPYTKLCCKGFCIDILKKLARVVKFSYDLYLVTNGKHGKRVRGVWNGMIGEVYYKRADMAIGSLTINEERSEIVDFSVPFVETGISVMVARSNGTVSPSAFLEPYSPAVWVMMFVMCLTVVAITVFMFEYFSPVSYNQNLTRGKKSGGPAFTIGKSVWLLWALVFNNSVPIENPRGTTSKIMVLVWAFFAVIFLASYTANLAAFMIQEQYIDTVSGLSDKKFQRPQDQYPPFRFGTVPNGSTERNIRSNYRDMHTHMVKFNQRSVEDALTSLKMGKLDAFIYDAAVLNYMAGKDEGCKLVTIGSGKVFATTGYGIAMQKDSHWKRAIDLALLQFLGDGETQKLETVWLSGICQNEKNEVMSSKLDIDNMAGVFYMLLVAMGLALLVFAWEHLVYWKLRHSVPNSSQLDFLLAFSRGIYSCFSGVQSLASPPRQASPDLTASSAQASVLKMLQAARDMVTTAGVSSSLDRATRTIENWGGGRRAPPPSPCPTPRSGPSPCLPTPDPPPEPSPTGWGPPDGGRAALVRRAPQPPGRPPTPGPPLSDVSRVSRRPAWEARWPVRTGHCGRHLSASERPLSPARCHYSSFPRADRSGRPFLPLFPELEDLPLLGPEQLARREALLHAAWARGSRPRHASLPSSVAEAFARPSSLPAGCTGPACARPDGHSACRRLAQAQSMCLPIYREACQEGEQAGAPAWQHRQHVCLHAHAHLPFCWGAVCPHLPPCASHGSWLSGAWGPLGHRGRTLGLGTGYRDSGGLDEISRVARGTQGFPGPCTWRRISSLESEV
# Excerpt: (§4) NMDAR constructs: cDNA encoding the NMDAR1a subunit (GluN1a) was obtained from Dr. Nakanishi. cDNA encoding the GluN2B (pci_sepGluN2B) was developed initially in the Malinow lab[36] and purchased from Addgene (cat# 23998). cDNA encoding the GluN2C and GluN2D were purchased from GenScript. Mutated GluN1, 2A and 2B cDNA constructs capable of assembling as GluN1/2A/2B triheteromeric (1/2AB) receptors[37] were obtained from Dr. Paoletti (Laboratoire de Neurobiologie, CNRS). […] Plasmids were linearized with NotI (GluN1a) or Avrll (GluN2B), or BstB1 (GluN2C and GluN2D) and transcribed in vitro with T7 (GluN1a, GluN1/2A, GluN2B, GluN2C, & GluN2D) RNA polymerase using the mMessage mMachine transcription kits (Invitrogen by Thermo Fisher Scientific). […]
# (§5) Electrophysiological responses were measured using a standard two‐microelectrode voltage‐clamp workstation [Warner Instruments (Hamden, Connecticut) model OC‐725C] designed to provide a fast clamp of large cells. […] Response magnitude was determined in xenopus oocytes expressing different NMDAR subunits (GluN1/2A, 1/2B, 1/2C, 1/2D, and 1/2A/2B) by the steady plateau response elicited by bath application of different agonist concentrations. […] Statistical significance was determined at the overall alpha level .05, using appropriate statistical methods as described in each figure captions.
# GluN1/2A [7] = target: T2, GluN1/2A (UniProt P35439+Q12879); assay: Current–voltage (I–V) relationship, TEVC in xenopus oocytes
# T2 sequence (Q12879 23-1464, other chains not shown): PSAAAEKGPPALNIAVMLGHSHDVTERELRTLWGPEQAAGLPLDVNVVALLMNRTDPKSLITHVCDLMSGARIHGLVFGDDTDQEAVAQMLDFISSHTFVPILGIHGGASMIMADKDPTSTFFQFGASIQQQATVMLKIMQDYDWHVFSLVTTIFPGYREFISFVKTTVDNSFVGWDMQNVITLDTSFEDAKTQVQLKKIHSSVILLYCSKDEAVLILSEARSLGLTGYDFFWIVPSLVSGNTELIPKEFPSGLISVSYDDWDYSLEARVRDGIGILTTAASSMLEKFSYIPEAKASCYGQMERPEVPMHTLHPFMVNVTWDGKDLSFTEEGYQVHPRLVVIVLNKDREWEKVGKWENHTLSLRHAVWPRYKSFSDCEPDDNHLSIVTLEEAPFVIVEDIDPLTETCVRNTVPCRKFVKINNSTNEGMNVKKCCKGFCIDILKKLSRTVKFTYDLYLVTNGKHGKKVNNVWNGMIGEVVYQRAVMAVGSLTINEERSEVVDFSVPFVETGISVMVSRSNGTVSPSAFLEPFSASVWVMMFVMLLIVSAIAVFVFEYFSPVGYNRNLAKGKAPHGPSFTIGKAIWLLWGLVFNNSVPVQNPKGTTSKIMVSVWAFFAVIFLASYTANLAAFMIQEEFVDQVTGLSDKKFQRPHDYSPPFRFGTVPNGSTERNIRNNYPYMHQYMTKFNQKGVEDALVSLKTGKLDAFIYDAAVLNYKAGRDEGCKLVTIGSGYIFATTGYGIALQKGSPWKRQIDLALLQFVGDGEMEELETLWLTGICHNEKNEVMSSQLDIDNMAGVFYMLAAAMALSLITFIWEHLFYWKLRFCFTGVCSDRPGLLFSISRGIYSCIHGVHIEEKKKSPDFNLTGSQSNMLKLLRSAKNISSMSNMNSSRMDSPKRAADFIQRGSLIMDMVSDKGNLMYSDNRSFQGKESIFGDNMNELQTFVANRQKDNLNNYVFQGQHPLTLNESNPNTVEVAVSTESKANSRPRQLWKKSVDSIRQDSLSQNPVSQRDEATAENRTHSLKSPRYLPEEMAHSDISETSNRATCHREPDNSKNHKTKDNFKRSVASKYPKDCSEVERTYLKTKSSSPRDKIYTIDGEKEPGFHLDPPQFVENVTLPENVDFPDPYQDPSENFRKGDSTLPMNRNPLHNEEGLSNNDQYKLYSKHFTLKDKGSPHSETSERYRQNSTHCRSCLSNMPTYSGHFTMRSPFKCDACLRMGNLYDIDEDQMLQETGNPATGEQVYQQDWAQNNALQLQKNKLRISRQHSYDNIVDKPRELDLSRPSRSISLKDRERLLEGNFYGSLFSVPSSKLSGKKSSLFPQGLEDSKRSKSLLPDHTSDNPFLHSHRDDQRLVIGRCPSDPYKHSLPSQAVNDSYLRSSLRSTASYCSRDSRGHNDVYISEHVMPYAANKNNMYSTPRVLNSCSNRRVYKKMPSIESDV
# Experimental: (§6) GluN1A, GluN2B, GluN2C, GluN2D, and GluN1/2A/2B cRNAs were mixed in a ratio of 1:1–3. 50 nl of the final cRNA mixture was microinjected (40–70 ng total) into the oocyte cytoplasm. Oocytes were incubated in ND‐96 solution at 18^◦C prior to electrophysiological recordings (1–3 days).
# (§7) After obtaining a steady‐state response to different agonist applications, agonist plus 100 μM CNS4 or agonist plus 40 μM MgCl2 plus 100 μM CNS4 was applied. […] Data points were aligned by least‐square fit by third‐order polynomial equation (Y = B0 + B1*X +B2*X ^2 + B3*X ^3), except for GluN1/2B that needed a fourth‐order polynomial equation.
# GluN1/2B = GluN1/2B (Rattus norvegicus, UniProt P35439+Q00960); assay: TEVC electrophysiology dose–response in xenopus oocytes; format: cell-based; parameters: SEP (super-ecliptic pHluorin); host or cells: Xenopus oocytes (cRNA injection); conditions: 100 µM CNS4; 0.3 µM glutamate + 100 µM glycine; −60 mV; average ± SEM
# Excerpt: as §4, §5
# GluN1/2D [8] = target: T1, GluN1/2D; assay: Current–voltage (I–V) relationship, TEVC in xenopus oocytes
# Experimental: as §6, §7
# GluN1/2A [9] = target: T2, GluN1/2A; assay: Whole‐cell patch‐clamp electrophysiology in HEK293T cells; format: cell-based; parameters: expressed in transfected cells; host or cells: HEK-293 / HEK293T cells
# Experimental: Whole‐cell patch‐clamp electrophysiology studies were carried out in the HEK‐293 cells, expressing recombinant NMDARs that lack native functional NMDARs.[40], [41], [42] Equal quantity of (1 µg) cDNA for GluN1a, GluN2 (A or B or C or D) subunits were co‐transfected 24–48 h before patch‐clamp electrophysiology assay. […] Cells were carefully washed before performing experiments and were used for the electrophysiology experiments after 24–48 h incubation at 37°C with 5%CO2. The whole‐cell patch‐clamp electrophysiology assay was performed using semi‐automated patch‐clamp equipment, Port‐a‐Patch (Nanion Technologies GmbH). Following are the constituents of various solutions used for patch‐clamp electrophysiology: internal solution [(mM) NaCl 10, EGTA 20, CsF 110, HEPES 10], Mg‐free external (recording) solution [(mM) NaCl 140, KCl 4, CaCl2 2, HEPES 10, D‐GlucoseMonohydrate 5], and Mg‐free seal enhancer solution [(mM) NaCl 80, KCl 3, CaCl2 35, HEPES 10]. Nanion NPC chips with […] resistance were used for the HEK‐293 cell recordings.
# [10] = 100 µM CNS4, 0.3 µM glutamate + 100 µM glycine, −60 mV, average ± SEM
# [11] = higher concentration (100 & 300 µM) of glutamate, almost no effect
# [12] = 100 µM CNS4, 100 µM glutamate + 100 µM glycine, −90 to +30 mv
smiles,measurement,setting,value
"O=C(NC(=S)N1CCCCC1c1cccnc1)c1ccc(F)cc1 (stereo not shown) [CNS4, 4‐fluoro‐N‐(2‐(pyridin‐3‐yl)piperidine‐1‐carbonothioyl)benzamide]","Na^+ signal, mean rfu","[1]; 100 µM CNS4 + 0.3 µM NMDA, p < .0001 vs CNS4 with no NMDA (412544)",391591 rfu
same,Na^+ signal compared to 300 µM NMDA alone,[1]; 100 µM CNS4 + 30–300 µM NMDA,significantly higher Na^+ signal
same,"Na^+ signal, mean rfu","[1]; 100 µM CNS4 + glutamate + MK801, p = .0024 vs glutamate + MK801 ([…])",519331 rfu
same,"Na^+ signal, mean rfu","[1]; 100 µM CNS4 alone, Figure 8B",538755 rfu
same,"Na^+ signal, mean rfu","[1]; 100 µM CNS4 with no NMDA, Figure 7A",412544 rfu
same,Na^+ signal,"[2]; 0.3 µM NMDA plus 100 µM CNS4, highest level",420668 rfu
same,Na^+ signal,"[2]; 100 µM CNS4 alone, Figure 7C",significantly increased
same,Na^+ signal,[3],426039 rfu
same,"Ca^2+ signal, rfu",[4],14423 rfu
same,"Ca^2+ signal, mean rfu","[5]; 100 µM CNS4 in vehicle, no NMDA, background control 13964, p < .0001",6317 rfu
same,CNS4 induced potentiation of Ca^2+ signal vs 300 µM NMDA,[5]; 100 µM CNS4 plus 300 µM NMDA,86%
same,"Ca^2+ signal, mean rfu","[5]; 100 µM CNS4 plus 300 µM NMDA, p < .0001 vs 300 µM NMDA alone (20964)",39001 rfu
same,"current response, agonist alone induced maximum current normalized to 100%",GluN1/2D [6]; [10],850.35% ± 133.9%
same,potentiation of receptor current,GluN1/2D [6]; [11],< 20%
same,"current response, agonist alone induced maximum current normalized to 100%",GluN1/2C; [10],506.34% ± 52.9%
same,potentiation of receptor current,GluN1/2C; [11],< 20%
same,voltage dependence of effect on current amplitude,GluN1/2A [7]; [12],no voltage dependence effect
same,reversal potential,"GluN1/2A [7]; agonist (100 µM glutamate + 100 µM glycine) + 40 µM MgCl2 + 100 µM CNS4, without CNS4 −20.06 ± 2.6, p > .05",−17.57 ± 2.0 mv
same,reversal potential,"GluN1/2A [7]; agonist (100 µM glutamate + 100 µM glycine) + 100 µM CNS4, absence of Mg^2+, agonist alone −17.42 ± 2.2, p > .05",−17.54 ± 1.8 mv
same,"current response, agonist alone induced maximum current normalized to 100%",GluN1/2B,193.22% ± 21.2%
same,inward current reversal potential,"GluN1/2D [8]; 0.3 µM glutamate + 100 µM glycine + CNS4, absence of Mg2+, without CNS4 -84.35± 0.42, p<0.0001, n=6",-72.52±0.85 mv
same,inward current reversal potential,"GluN1/2D [8]; 0.3 µM glutamate + 100 µM glycine + CNS4, presence of Mg2+, without CNS4 -88.29± 0.35, p<0.0001, n=6",-77.88±0.87 mv
same,voltage dependence of effect on current amplitude,GluN1/2D [8]; [12],no voltage dependence effect
same,reversal potential,"GluN1/2D [8]; agonist (100 µM glutamate + 100 µM glycine) + 40 µM MgCl2 + 100 µM CNS4, without CNS4 −75.8 ± 5.51, p > .05",−72.58 ± 3.08 mv
same,reversal potential,"GluN1/2D [8]; agonist (100 µM glutamate + 100 µM glycine) + 100 µM CNS4, absence of Mg^2+, agonist alone −54.2 ± 4.5, p > .05",−56.05 ± 5.8 mv
same,deactivation time constant tau (τ),"GluN1/2A [9]; 100 µM CNS4 + Ag (100 µM glutamate + 100 µM glycine), n = 19, Ag alone 710.9 ± 98.27 ms, n = 9, p < .05",1067 ± 104.3 ms
same,effect on maximum inducible current,"GluN1/2A [9]; 100 µM CNS4 co‐applied with agonist, 0.3 µM glutamate + 100 µM glycine",significantly potentiated
same,effect on peak current amplitude,"GluN1/2A [9]; 100 µM CNS4 co‐applied with agonist, 100 µM glutamate + 100 µM glycine",significantly inhibited
